# Data from patent publication EP4628081A1, “COMPOSITION FOR REMOVING HELICOBACTER PYLORI COMPRISING ZASTAPRAZAN OR PHARMACEUTICALLY ACCEPTABLE SALT THEREOF” (priority 2022, dated 2024).
# Read-outs that look alike come from different tables or passages of the source.
# Legend:
# [1] = test system: Helicobacter pylori (ATCC43504); test: MIC and MBC by microdilution method according to CLSI guideline; assay type: cell-based; conditions: ATCC43504, 72 h
# Description: Helicobacter pylori (ATCC43504): Type strain for antibiotic susceptibility testing according to the Clinical & Laboratory Standards Institute (CLSI) guidelines.
# (§1) The medium was prepared using Müller-Hinton broth (MH, Difco Inc., Sparks, MD, USA) [w/7% […] (Sigma CO., LTD., St. Louis, USA), 0.4% isovitalex (BBL Inc., Sparks, MD, USA)].
# (§2) An antibiotic susceptibility testing was performed using the microdilution method according to the CLSI guideline. Two-fold serial dilution was performed in 12 steps in a 48-well plate with the highest concentration of 128 µg/mL for amocixillin and clarithromycin and 256 µg/mL for omeprazole. The bacteria were inoculated into wells containing only medium without antibiotics to prepare the positive control group, and the wells containing only medium without antibiotics or inoculated bacteria were used as the negative control group. The concentration range of the test substances, zastaprazan (JP-1366) and fexuprazan, was determined through preliminary experiments. H. pylori stored in a deep freezer (-70 °C or lower) was thawed, inoculated onto BHI agar (w/7% laked horse blood and 0.4% isovitalex), cultured at 37 °C under microaerobic conditions of 5% O2, 10% CO2, and 85% N2 gas for three days, and then subcultured onto a fresh medium. The cultured bacteria were harvested, suspended in PBS, inoculated into each well at a concentration of 5 x 10^5 CFU/mL, and then cultured at 37 °C under microaerobic conditions of 5% O2, 10% CO2, and 85% N2 gas for three days. The lowest concentration at which no bacterial growth was observed was determined as the MIC. Thereafter, 10 µL of the culture solution from each well at different concentrations was spotted onto BHI agar (w/7% laked horse blood and 0.4% isovitalex) containing no antibiotics and cultured for three days at 37 °C under microaerobic conditions. The lowest concentration at which no bacteria growth occurred was determined as the MBC.
# To determine the MBC, 10 µl of the culture solution from each well was spotted on a solid medium containing no antibiotics or test substances after the MIC determination, and bacterial growth was examined.
# (§3) All tests were performed in duplicate, and the results were determined by conducting the experiments in triplicate.
# [2] = test system: Helicobacter pylori 26695 (ATCC700329); test: as above; assay type: cell-based; conditions: ATCC700329, 72 h
# Description: Helicobacter pylori 26695 (ATCC700329): A strain isolated from a patient known to be associated with the development of gastric cancer. The strain is cytotoxin associated gene (CagA)-positive and vacuolating cytotoxin (VacA)-positive and has a well-known genetic background, so it is mainly used for research purposes.
# as §1
# An antibiotic susceptibility testing was performed using the microdilution method according to the CLSI guideline. […] The concentration range of the test substances, zastaprazan (JP-1366) and fexuprazan, was determined through preliminary experiments. […] The lowest concentration at which no bacterial growth was observed was determined as the MIC. […] The lowest concentration at which no bacteria growth occurred was determined as the MBC.
# To determine the MIC, visual inspection was performed and the absorbance was measured at 600 nm, and the growth was confirmed based on the absorbance of the negative control group containing only the medium. […]
# as §3
# [3] = test system: Helicobacter pylori SS1 (mouse colonizing strain); test: as above; assay type: cell-based; conditions: 72 h, 3 days; for MBC: spotted on antibiotic-free BHI agar, unit from method b141/b236, table prints none
# Description: Helicobacter pylori SS1 (mouse colonizing strain): A strain known as Sydney strain. The strain is CagA-positive and VacA-positive and has been confirmed to infect and colonize in C57BL/6 mice. The strain is used in animal testing.
# as §1
# as §2, with “Thereafter, 10 µL of the culture solution from each well at different concentrations was spotted onto BHI agar (w/7% laked horse blood and 0.4% isovitalex) containing no antibiotics and cultured for three days at 37 °C under microaerobic conditions.” left out, “MBC. […]” for “MBC.”
# as §3
# [4] = test system: Helicobacter pylori SS1 (mouse colonizing strain); test: Clarithromycin MIC and MBC by microdilution with or without JP-1366 in the medium; assay type: cell-based; conditions: medium containing zastaprazan (JP1366) at 1/2 MIC concentration vs MH medium
# Description: Helicobacter pylori SS1 (mouse colonizing strain): Known as Sydney strain, the strain is CagA-positive and VacA-positive, and has been confirmed to colonize mice C57BL/6 and is used in animal experiments.
# Zastaprazan (JP-1366) was supplied as a product prepared at a concentration of 10 mM in dimethyl sulfoxide (DMSO) solvent, and clarithromycin was prepared at a concentration of 5 mg/mL in DMSO solvent.
# An antibiotic susceptibility test was performed by the microdilution method according to CLSI guideline.
# The antibiotic susceptibility test was performed using MH broth (7% horse serum, 0.4% IsoVitalex), and the susceptibility test medium for zastaprazan (JP-1366) was prepared at this time. […] Using the medium prepared in this way, clarithromycin was serially diluted 2-fold and in 16 steps, with a maximum concentration of 16 µg/mL. Wells containing only the medium without antibiotics were used as a negative control group, and wells inoculated only with the bacteria in the medium without antibiotics were used as a positive control group. […] The lowest concentration of the sample at which no bacterial growth was observed was determined as the MIC. […] The lowest concentration at which no bacterial growth was observed was determined as the minimum bactericidal concentration(MBC). […]
# [5] = Solubility observed during MIC analysis; assay type: physicochemical; conditions: in MIC medium; formation of suspension, interference in visual/absorbance analysis
# Text: Referring to Table 4 below, since the solubility of zastaprazan (JP-1366) was low, the MIC analysis was difficult (poor solubility, formation of suspension, interference in visual/absorbance analysis), so the inhibitory effect on the H. pylori strains was confirmed through the MBC index.
# [6] = test system: patients with erosive gastroesophageal reflux disease; test: Phase 2 clinical trial, healing of mucosal breaks and symptom assessment; assay type: in vivo, human; conditions: within 24 hours and for seven days after administration; subject diary
# Description: H. pylori testing was performed by 13C-urea breath test (13C-UBT), gastroscopy (Campylobacter-like organism test, CLO), or tissue biopsy to confirm H. pylori positivity/negativity. […] This clinical trial was a randomized, double-blind, active-controlled, multicenter, phase 2 clinical trial targeting patients with erosive gastroesophageal reflux disease. After the subjects gave written consent to participate in the clinical trial, a screening test was conducted. […] At this time, the subjects were stratified by grade (A, B, C, D) according to the LA classification system classified by upper gastrointestinal endoscopy. Randomly assigned subjects took the clinical trial drug once a day according to the assigned administration group for four weeks. After four weeks of administration of the clinical trial drug, the subjects visited the clinical trial institution to undergo an upper gastrointestinal endoscopy to assess whether they were healed. Healed subjects underwent a Safety Follow-Up (F/U) two weeks later, and unhealed subjects were administered the clinical trial drug for additional four weeks (a total of 8 weeks of administration) and visited the clinical trial institution to undergo an upper gastrointestinal endoscopy. […]
structure (smiles),measurement,setting,value
"CC1(C)S[C@@H]2[C@H](NC(=O)[C@H](N)c3ccc(O)cc3)C(=O)N2[C@H]1C(=O)O [Amoxicillin, Amoxicillin Trihydrate]",MBC,"[1]; strain 43504, spotted on antibiotic-free BHI agar, 3 days, unit from method b141/b236, table prints none, read-out: MBC",0.032 µg/mL
same,MBC,"[2]; strain 26695, spotted on antibiotic-free BHI agar, 3 days, unit from method b141/b236, table prints none, read-out: MBC",0.032 µg/mL
same,MBC,[3],0.25 µg/mL
CC[C@H]1OC(=O)[C@H](C)[C@@H](O[C@H]2C[C@@](C)(OC)[C@@H](O)[C@H](C)O2)[C@H](C)[C@@H](O[C@@H]2O[C@H](C)C[C@H](N(C)C)[C@H]2O)[C@](C)(OC)C[C@@H](C)C(=O)[C@H](C)[C@@H](O)[C@]1(C)O [Clarithromycin],MBC,[1],0.063 µg/mL
same,MIC,[1],0.032 µg/mL
same,MBC,[2],0.125 µg/mL
same,MIC,"[3]; 37 °C, microaerobic, unit from method b141, table prints none",0.032 µg/mL
same,MBC,[3],0.125 µg/mL
same,MBC lowered by,[4],about 1/2
"Cc1cccc(C)c1CNc1cc(C(=O)N2CCC2)cn2c(C)c(C)nc12.O=C(O)CC(O)(CC(=O)O)C(=O)O [JP-1366, azetidin-1-yl{8-[(2,6-dimethylbenzyl)amino]-2,3-dimethylimidazo[1,2-a]pyridin-6-yl}methanone citrate salt]",solubility,[5],low
same,"evaluation of all symptoms (heartburn, acid reflux, heartburn/acid reflux)",[6],all symptoms tended to be ameliorated
COc1ccc2[nH]c([S+]([O-])Cc3ncc(C)c(OC)c3C)nc2c1 (stereo not shown) [Omeprazole],MBC,[1],64 µg/mL
same,MIC,[1],32 µg/mL
